This data set in a line: RP, Advanced Chromatography Technologies ACE C18, 50 × 2.1 mm, 3 µm; A: water + 10 mM ammonium acetate; B: acetonitrile; gradient (min/%B) 0/5 1/5 21/95. The note with it: stereoisomer not certain.

In the case of `CC(C)(c1ccccc1)c1cc(-n2nc3ccccc3n2)c(O)c(C(C)(C)c2ccccc2)c1`, the LC retention time came to 19.4 min.

`c1ccc2n[nH]nc2c1` [1-H-benzotriazole]: the LC retention time stood at 3.14 min.

As for `Nc1c(Cl)cc([N+](=O)[O-])cc1Cl` [2,6-dichloro-4-nitroaniline], the LC retention time was 9.41 min.

In the case of `c1ccc2sc(SSc3nc4ccccc4s3)nc2c1` [2-2'-dithiobisbenzothiazole], the LC retention time was 14.6 min.

With `CC(C)(C)c1cc(-n2nc3ccc(Cl)cc3n2)c(O)c(C(C)(C)C)c1` [2-4-di-tert-butyl-6-(5-chlorobenzotriazol-2-yl)phenol], the LC retention time was determined as 20.7 min.

Consider `Nc1ccc([N+](=O)[O-])cc1[N+](=O)[O-]` [2-4-dinitroaniline], for which the LC retention time stood at 7.02 min.

Consider `CCC(C)(C)c1cc(-n2nc3ccccc3n2)c(O)c(C(C)(C)CC)c1` [2-(2H-benzotriazol-2-yl)-4-6-di-tert-pentylphenol], for which the LC retention time was 20.8 min.

In the case of `Cc1ccc(O)c(-n2nc3ccccc3n2)c1` [2-(benzotriazol-2-yl)-4-methylphenol], the LC retention time was 13.3 min.

For the compound `Nc1c(Br)cc([N+](=O)[O-])cc1[N+](=O)[O-]` [2-bromo-4,6-dinitroaniline], the LC retention time was found to be 8.73 min.

Take `CSc1nc2ccccc2s1` [2-methylthiobenzothiazole]: the LC retention time turned out to be 9.58 min.

Take `Cc1cc2n[nH]nc2cc1C` [5-6-Dimethyl-2H-benzotriazole]: the LC retention time worked out at 5.73 min.

On to `Cc1ccc2n[nH]nc2c1` [5-Methyl-1H-benzotriazole], for which the LC retention time came to 4.65 min.

Take `Nc1c(Cl)cc([N+](=O)[O-])cc1[N+](=O)[O-]` [6-chloro-2-4-dinitroaniline]: the LC retention time turned out to be 8.9 min.

Take `c1ccc2scnc2c1` [Benzothiazole]: the LC retention time stood at 5.38 min.

As for `CC(C)COC(=O)c1ccccc1C(=O)OCC(C)C` [Diisobutyl phthalate], the LC retention time worked out at 14 min.

Regarding `c1ccc2sc(SNC3CCCCC3)nc2c1` [N-cyclohexyl-2-benzothiazolesulphenamide], the LC retention time is 13.7 min.

With `c1ccc2ncccc2c1` [Quinoline], the LC retention time was determined as 6.1 min.

The values are drawn from the RepoRT retention time repository.
